Data published in patent publication US20130012531A1, “TREATMENT METHOD” (priority 2010, published 2013).
Like-named read-outs stand apart in the source and are kept apart here.

Key:
[1] = tested on: experimental CNV (choroidal neovascularization) leakage; assay: Fluorescence angiography in experimental laser-induced CNV; assay type: in vivo, Brown Norway rats
Experimental: (§1) Male Brown Norway rats (10-12 weeks of age, […] weighing 170 to 360 g) were used throughout this study. The animals were treated according to ARVO Statement on the use of animals in ophthalmic and vision research, and all animal experiments were reviewed and approved by municipal and University Hospital animal care committees in Leipzig. The rats were anesthetized with intraperitoneal ketamine (100 mg/kg; Ratiopharm, Ulm, Germany) and xylazine (BayerVital, Leverkusen, Germany; 10 mg/kg). Topical application of tropicamide (5 mg/ml) and phenylephrine hydrochloride (Ankerpharm, Rudolstadt, Germany; 50 mg/ml) were instilled for mydriasis during laser photocoagulation and fluorescein angiography. Fourteen days after laser injury, rats were humanely euthanized using overdoses of carbon dioxide.
(§2) Animals were treated using laser photocoagulation-induced rupture of Bruch's membrane using a 545 nm dye laser (Coherent Argon Dye Laser #920, Coherent Medical Laser, Palo Alto, Calif.) attached to a slit lamp (Carl Zeiss, Oberkochen, Germany). A contact lens was used to retain corneal clarity through photocoagulation. The laser spots were placed separately using the following settings; 50-μm diameter, 0.1 second duration, and 180-mW intensity. To rupture Bruch's membrane, four to seven laser spots were applied between the major retinal vessels close to the optic disc. Pazopanib (approximately 30 μl of a 5 mg/ml sterile-filtered solution) was administered twice daily. Animals of the control group received a vehicle only.
Aiming to document treatment of CNV in its early stage, a treatment schedule was used as follows. Laser photocoagulation was carried out as described above, and pazopanib was applied twice a day topically from post laser day 6 until study end on post laser day 14. Coagulated lesions were first documented by angiography on day 7 post laser, and only rats with ocular CNV were included in the analysis. Sodium fluorescein was injected into tail vein of the anesthetized rats and fluorescein angiograms were obtained by means of a fundus camera (FD-31A, Topcon, Tokyo, Japan). On day 14, rats underwent a second angiography. Angiograms taken 100 to 140 seconds after injection were converted to digital images, and areas of fluorescein leakage with intensity as high as in major vessels were quantified in a masked fashion BY two of us (YY; XMY) using a computer software (NIH image, Research Service Branch, Bethesda, Md.). Differences in fluorescence were calculated by the following formula:
Area of fluorescein leakage on day 14×100%/area of fluorescein leakage on day 7.

[2] = tested on: CNV lesions; assay: Histology (HE) of CNV lesion area on post-laser day 14; assay type: in vivo, Brown Norway rats
Experimental: as §1, §2
After the rats were euthanized on day 14, eyes were immediately dissected and fixed with 4% paraformaldehyde (dissolved in PBS). […] Three to five serial sections from each CNV membrane were measured, and the highest value (representing the top of a given CNV complex) was stored. Digitized images were analyzed and measured with the concomitant image-analysis software (Axiovision; Carl Zeiss). Each lesion was encircled manually, and their area (in μm^2) was calculated by the program.

[3] = Plasma and ocular tissue drug concentration after topical eye drops; assay type: in vivo, Norway Brown rats; settings: for concentration at 5 hours after third drop: female, Norway Brown, rat, topical, 30 μl (5 mg/ml) per drop, three drops over 24 hours, 30 μl drops to left eye only, three times over 24 hours
Experimental: Female Norway Brown rats were used during these studies. Rats were purchased from Charles River (Portage, Mich.). […]
Rats were euthanized by CO2 inhalation before enucleation and collection of plasma samples. Samples were frozen immediately over dry ice after collection and then stored at −80° C. The ocular tissues were processed through a dissection-pulverization-drug extraction process. Frozen eye sectioning was performed by the following steps. The preparation of rat eye cups was done by removing the anterior portion of the eye with a razor blade followed by removal of the lens and frozen vitreous with forceps. A sagittal section was made in the eye cup before collection of the retina/choroid tissue by scraping the exposed sclera with the round end of a spatula until the pigmented tissue was completely removed from the scleral tissue. The collected tissues were pulverized under liquid nitrogen. Frozen tissue was carefully placed in a liquid nitrogen primed BioPulverizer (Biospec Products Inc, Bartlesville, Okla.). Following pulverization the tissue powder was removed from the pulverizer and transferred into a polypropylene tube. Extraction buffer (50% methanol/50% 0.5 M HCl) was added to tissue powder followed by two cycles of sonication, centrifugation, and supernatant collection. Tissue homogenate supernatant was pooled and frozen on dry ice then stored at −80° C. until drug analysis. The extraction efficacy of this methodology was assumed to be 100% for calculation purposes.
Plasma samples and eye tissue extracts were analyzed for pazopanib using a validated analytical method based on protein precipitation, followed by HPLC/MS/MS analysis, Using 50 μl aliquot of plasma and eye tissue extract, the lower limit of quantification of pazopanib was 1 ng/ml for plasma and 10 ng/ml for eye tissue extract. The higher limit of quantification was 500 ng/ml for plasma and 5000 ng/ml for eye tissue extracts. The computer systems that were used on these studies to acquire and quantify data included Analyst Version 1.4,1 and SMS2000 Version 1.6. Plasma sample concentrations were expressed as ng pazopanib/ml. Tissue concentrations were determined by the following formula: Pazopanib ng/g tissue=([concentration in supernatant ng/ml*extract volume ml]/tissue weight g).

[4] = Ocular tissue distribution and systemic concentrations of radioactivity after topical ocular administration; assay type: in vivo, Dutch belted (pigmented) rabbits
Experimental: The ocular tissue distribution and systemic concentrations of radioactivity were assessed following topical ocular administration of pazopanib to Dutch belted (pigmented) rabbits. A single 60-μL at a target dose of 0.3 mg/dose (30 μCi/dose) was administered to the right eye. Blood and ocular tissues from both the dosed and non-dosed (left) eye were collected from one animal at each of eight sampling times up to 24 h, and analyzed for total radioactivity.

[5] = single 60-μL topical dose 0.3 mg
[6] = single 60-μL topical dose 0.3 mg, 2 h

concentration at 5 hours after third drop ([3]; eye cup tissues of the fellow non-treated eye (OD), read-out: pazopanib in eye cup tissues, fellow non-treated eye (OD), mean): 159 ng/g | concentration at 5 hours after third drop ([3]; read-out: pazopanib in eye cup tissues (sclera, choroid, retina), treated eye (OS), mean): 503 ng/g | plasma level after 24 hours ([3]; single 30 μl eye drop): undetectable | time of peak plasma level ([3]; single 30 μl eye drop): 60 min | peak plasma level ([3]; single 30 μl eye drop (5 mg/ml)): ~300 ng/mL | time of choroid peak level [4, 5]: 8 h | time of highest concentration in blood [4, 5]: 1 h | time of highest concentration in plasma [4, 5]: 2 h | time of retina peak level [4, 5]: 4 h | highest concentration of radioactivity in blood ([4]; single 60-μL topical dose 0.3 mg to right eye, at 1 h): 11.3 ng eq/g | highest concentration of radioactivity in plasma ([4]; single 60-μL topical dose 0.3 mg to right eye, at 2 h): 12,8 ng eq/g | choroid level of radioactivity at 2 h [4, 6]: 40.6 ng eq/g | retina level of radioactivity at 2 h [4, 6]: 9.17 ng eq/g | retina peak level of radioactivity ([4]; single 60-μL topical dose 0.3 mg, at 4 h): 10.2 ng eq/g | choroid peak level of radioactivity ([4]; single 60-μL topical dose 0.3 mg, at 8 h): 60.1 ng eq/g
SMILES: Cc1ccc(Nc2nccc(N(C)c3ccc4c(C)n(C)nc4c3)n2)cc1S(N)(=O)=O [pazopanib, 5-[[4-[(2,3-dimethyl-2H-indazol-6-yl)methylamino]-2-pyrimidinyl]amino]-2-methylbenzenesulfonamide]
Area of fluorescein leakage on day 14 x 100% / area on day 7 ([1]; lesioned eyes whose fellow (contralateral) eye was pazopanib-treated, % of baseline day 7): 115.24±16.72% | development of CNV lesions (vessel leakage, fluorescence angiography) ([1]; topically administered, post laser days 7 to 14, versus vehicle): significantly reduced | Area of fluorescein leakage on day 14 x 100% / area on day 7 ([1]; topically treated eyes, twice daily 5 mg/ml eye drops, post laser day 6-14, mean±SD, baseline 100% at day 7): 111.41±21.34% | inhibition of further lesion development ([1]; twice-daily topical administration, versus vehicle control eyes): > 89% | CNV lesion area ([2]; eyes treated topically with pazopanib, day 14 after laser): 7,760.3±2,312.0 μm^2 | inhibition in lesion size ([2]; lasered eyes from rats treated topically in the fellow eye): ~34% | inhibition in lesion size compared to vehicle control ([2]; topically treated eyes, day 14): 71.7%
